Literature values as cited in patent publication US6730319B2, “Pharmaceutical compositions having depressed melting points” (Hoffmann-La Roche Inc., priority 2001, dated 2004).

Settings: in vivo

bioavailability increase in the fed status compared to the fasted state: 28 fold
Compound: Cc1c(C)c2c(c(C)c1OC(=O)c1cccnc1)CC[C@@](C)(CCC[C@H](C)CCC[C@H](C)CCCC(C)C)O2 [alpha-tocopherol-nicotinate]
